Here are results for six molecules from patent publication USRE42890E1, “Furazanobenzimidazoles” (Basilea Pharmaceutica AG, priority 2003, dated 2011).

For assay [1], the system named is MRC5. The assay is described as follows: MTS proliferation assay, MRC5. It is filed as cell-based. The settings on record: MRC5, 72 h incubation; read-out: MTS proliferation assay IC 50 MRC5. The gist of the method:
(§1)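 Viability after 72 h compound exposure at 10, 3, 1 and 0.3 μM final was scored by MTS absorbance (492 nm, 3 h reagent incubation), with cells kept in RPMI-1640 containing 5% or 10% fetal calf serum.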
(Tetrazolium assays rely on reduction of a dye to a coloured formazan, in cell work by metabolically active cells.)

The test system of assay [2] is adherent cells or suspension cells. The assay can be described thus: Hoechst 33342 nuclear staining (fraction of apoptotic nuclei). Type of assay: cell-based. Also on record: key: 0 relating to no activity; 1 relating to weak activity comprising less than 70% of the cells; score 2 relating to strong activity comprising more than 70% of the cells.
In assay [3] the test system is HT1080. The assay can be described thus: MTS proliferation assay, HT1080. The settings on record: HT1080, 72 h incubation; read-out: MTS proliferation assay IC 50 HT1080. Type of assay: cell-based, human. A digest of the protocol:
(§2)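 Proliferation: RPMI-1640/FCS complete medium, 37 °C, 7.5% CO2, cells plated 24 h pre-dose; compounds at 10, 3, 1, 0.3 μM final for 72 h; MTS, 492 nm.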

The subject of assay [4] is HeLa. The assay can be described thus: MTS proliferation assay, HeLa. It is filed as cell-based, human. The settings on record: 72 h incubation, read-out: MTS proliferation assay IC 50 HeLa. A digest of the protocol: as §2
Assay [5] deals with Jily. The assay is described as follows: MTS proliferation assay, Jily. It is filed as cell-based. The conditions noted are these: 72 h incubation, read-out: MTS proliferation assay IC 50 Jily. The gist of the method: as §1
Assay [6] has as its system Jurkat. The assay can be described thus: MTS proliferation assay, Jurkat. It is filed as cell-based, human. The settings on record: 72 h incubation, read-out: MTS proliferation assay IC 50 Jurkat. A digest of the protocol:
as §2

SMILES strings stand for the structures. Where only a bound is given, the exact number is not on record here.

On to `N#CCCNc1nonc1-c1nc2ccccc2n1COc1ccccc1` [Example 95], for which the IC50 in assay [1], in assay [3], in assay [4], in assay [5] and in assay [6] was 0.1 to 1 µM each time. Moreover, the “Hoechst 33342 nuclear staining score” value is listed as 0 in assay [2] (HeLa, conc 0.01 μm); 0 in assay [2] (HeLa, conc 0.1 μm); 1 (1 relating to weak activity comprising less than 70% of the cells) in assay [2] (HeLa, conc 1 μm); 0 in assay [2] (Jily, conc 0.01 μm); 0 in assay [2] (Jily, conc 0.1 μm); 1 (1 relating to weak activity comprising less than 70% of the cells) in assay [2] (Jily, conc 1 μm). For the same molecule, the “Hoechst 33342 nuclear staining score” value in assay [2] (Jurkat, conc 0.01 μm) was 0; in assay [2] (Jurkat, conc 0.1 μm), 0; in assay [2] (Jurkat, conc 1 μm), 2 (score 2 relating to strong activity comprising more than 70% of the cells); in assay [2] (MRC5, conc 0.01 μm), 0; in assay [2] (MRC5, conc 0.1 μm), 0; in assay [2] (MRC5, conc 1 μm), 0. The “Hoechst 33342 nuclear staining score” value in assay [2] (PBLs, conc 0.01 μm) stood at 0; in assay [2] (PBLs, conc 0.1 μm), 0; in assay [2] (PBLs, conc 1 μm) it was 0.
For the molecule `Nc1nonc1-c1nc2ccccc2n1COc1ccc(C=O)cc1` [Example 96], the IC50 in assay [1], in assay [3], in assay [4], in assay [5] and in assay [6] was 0.1 to 1 µM throughout. In addition, the “Hoechst 33342 nuclear staining score” value is reported as 0 in assay [2] (H460, conc 0.01 μm); 0 in assay [2] (H460, conc 0.1 μm); 1 (1 relating to weak activity comprising less than 70% of the cells) in assay [2] (H460, conc 1 μm); 0 in assay [2] (HeLa, conc 0.01 μm); 0 in assay [2] (HeLa, conc 0.1 μm); 2 (score 2 relating to strong activity comprising more than 70% of the cells) in assay [2] (HeLa, conc 1 μm). The “Hoechst 33342 nuclear staining score” value in assay [2] (Jily, conc 0.01 μm) is 0; in assay [2] (Jily, conc 0.1 μm) it was 0; in assay [2] (Jily, conc 1 μm), 2 (score 2 relating to strong activity comprising more than 70% of the cells); in assay [2] (Jurkat, conc 0.01 μm), 0; in assay [2] (Jurkat, conc 0.1 μm), 0; in assay [2] (Jurkat, conc 1 μm), 2 (score 2 relating to strong activity comprising more than 70% of the cells). Besides, the “Hoechst 33342 nuclear staining score” value is given as 0 in assay [2] (MRC5, conc 0.01 μm); 0 in assay [2] (MRC5, conc 0.1 μm); 0 in assay [2] (MRC5, conc 1 μm); 0 in assay [2] (PBLs, conc 0.01 μm); 0 in assay [2] (PBLs, conc 0.1 μm); 0 in assay [2] (PBLs, conc 1 μm).
In the case of `Nc1nonc1-c1nc2ccccc2n1COc1ccc(CO)cc1` [Example 97], the IC50 in assay [1], in assay [3], in assay [4], in assay [5] and in assay [6] was 0.1 to 1 µM each time. In addition, the “Hoechst 33342 nuclear staining score” value in assay [2] (H460, conc 0.01 μm) is 0; in assay [2] (H460, conc 0.1 μm) it was 0; in assay [2] (H460, conc 1 μm) it was 2 (score 2 relating to strong activity comprising more than 70% of the cells); in assay [2] (HeLa, conc 0.01 μm), 0; in assay [2] (HeLa, conc 0.1 μm), 0; in assay [2] (HeLa, conc 1 μm), 2 (score 2 relating to strong activity comprising more than 70% of the cells). Further, the “Hoechst 33342 nuclear staining score” value is recorded as 0 in assay [2] (Jily, conc 0.01 μm); 0 in assay [2] (Jily, conc 0.1 μm); 2 (score 2 relating to strong activity comprising more than 70% of the cells) in assay [2] (Jily, conc 1 μm); 0 in assay [2] (Jurkat, conc 0.01 μm); 0 in assay [2] (Jurkat, conc 0.1 μm); 2 (score 2 relating to strong activity comprising more than 70% of the cells) in assay [2] (Jurkat, conc 1 μm). Moreover, the “Hoechst 33342 nuclear staining score” value is on record as 0 in assay [2] (MRC5, conc 0.01 μm); 0 in assay [2] (MRC5, conc 0.1 μm); 0 in assay [2] (MRC5, conc 1 μm); 0 in assay [2] (PBLs, conc 0.01 μm); 0 in assay [2] (PBLs, conc 0.1 μm); 0 in assay [2] (PBLs, conc 1 μm).
For `Nc1nonc1-c1nc2ccccc2n1COc1ccc([N+](=O)[O-])cc1` [Example 98], the IC50 in assay [1] was more than 1 µM; in assay [3], more than 1 µM; in assay [4] it was more than 1 µM; in assay [5], 0.1 to 1 µM; in assay [6], 0.1 to 1 µM. Further, the “Hoechst 33342 nuclear staining score” value was 0 in assay [2] (H460, conc 0.01 μm); 0 in assay [2] (H460, conc 0.1 μm); 0 in assay [2] (H460, conc 1 μm); 0 in assay [2] (HeLa, conc 0.01 μm); 0 in assay [2] (HeLa, conc 0.1 μm); 0 in assay [2] (HeLa, conc 1 μm). The “Hoechst 33342 nuclear staining score” value in assay [2] (Jily, conc 0.01 μm) is reported as 0; in assay [2] (Jily, conc 0.1 μm) it was 0; in assay [2] (Jily, conc 1 μm), 2 (score 2 relating to strong activity comprising more than 70% of the cells); in assay [2] (Jurkat, conc 0.01 μm), 0; in assay [2] (Jurkat, conc 0.1 μm) it was 0; in assay [2] (Jurkat, conc 1 μm) it was 2 (score 2 relating to strong activity comprising more than 70% of the cells). Moreover, the “Hoechst 33342 nuclear staining score” value was 0 in assay [2] (MRC5, conc 0.01 μm); 0 in assay [2] (MRC5, conc 0.1 μm); 0 in assay [2] (MRC5, conc 1 μm); 0 in assay [2] (PBLs, conc 0.01 μm); 0 in assay [2] (PBLs, conc 0.1 μm); 0 in assay [2] (PBLs, conc 1 μm).
With `Nc1ccc(OCn2c(-c3nonc3N)nc3ccccc32)cc1` [Example 99], the IC50 in assay [1] was more than 1 µM; in assay [3], more than 1 µM; in assay [4], more than 1 µM; in assay [5], 0.1 to 1 µM; in assay [6], 0.1 to 1 µM. The “Hoechst 33342 nuclear staining score” value in assay [2] (H460, conc 0.01 μm) turned out to be 0; in assay [2] (H460, conc 0.1 μm) it was 0; in assay [2] (H460, conc 1 μm) it was 0; in assay [2] (HeLa, conc 0.01 μm) it was 0; in assay [2] (HeLa, conc 0.1 μm), 0; in assay [2] (HeLa, conc 1 μm) it was 0. Also, the “Hoechst 33342 nuclear staining score” value in assay [2] (Jily, conc 0.01 μm) is recorded as 0; in assay [2] (Jily, conc 0.1 μm), 0; in assay [2] (Jily, conc 1 μm), 1 (1 relating to weak activity comprising less than 70% of the cells); in assay [2] (Jurkat, conc 0.01 μm) it was 0; in assay [2] (Jurkat, conc 0.1 μm), 0; in assay [2] (Jurkat, conc 1 μm), 1 (1 relating to weak activity comprising less than 70% of the cells). The “Hoechst 33342 nuclear staining score” value turned out to be 0 in assay [2] (MRC5, conc 0.01 μm); 0 in assay [2] (MRC5, conc 0.1 μm); 0 in assay [2] (MRC5, conc 1 μm); 0 in assay [2] (PBLs, conc 0.01 μm); 0 in assay [2] (PBLs, conc 0.1 μm); 0 in assay [2] (PBLs, conc 1 μm).
`Cl.Nc1ccc(OCn2c(-c3nonc3N)nc3ccccc32)cc1` [Example 100]: the IC50 in assay [1] was more than 1 µM; in assay [3], more than 1 µM; in assay [4] it was more than 1 µM; in assay [5], more than 1 µM; in assay [6] it was 0.1 to 1 µM. Further, the “Hoechst 33342 nuclear staining score” value was 0 in assay [2] (H460, conc 0.01 μm); 0 in assay [2] (H460, conc 0.1 μm); 0 in assay [2] (H460, conc 1 μm); 0 in assay [2] (HeLa, conc 0.01 μm); 0 in assay [2] (HeLa, conc 0.1 μm); 0 in assay [2] (HeLa, conc 1 μm). Further, the “Hoechst 33342 nuclear staining score” value is given as 0 in assay [2] (Jily, conc 0.01 μm); 0 in assay [2] (Jily, conc 0.1 μm); 1 (1 relating to weak activity comprising less than 70% of the cells) in assay [2] (Jily, conc 1 μm); 0 in assay [2] (Jurkat, conc 0.01 μm); 0 in assay [2] (Jurkat, conc 0.1 μm); 1 (1 relating to weak activity comprising less than 70% of the cells) in assay [2] (Jurkat, conc 1 μm). Also, the “Hoechst 33342 nuclear staining score” value is on record as 0 in assay [2] (MRC5, conc 0.01 μm); 0 in assay [2] (MRC5, conc 0.1 μm); 0 in assay [2] (MRC5, conc 1 μm); 0 in assay [2] (PBLs, conc 0.01 μm); 0 in assay [2] (PBLs, conc 0.1 μm); 0 in assay [2] (PBLs, conc 1 μm).
